Experimental findings from PubChem BioAssay AID651859 (Sanford-Burnham Center for Chemical Genomics, 2012) are described below.

Activity calls are given as the source filed them. How the calls were made is not given here.

The subject of the experiment is cell viability, luminescent cytotoxicity assay. The experiment in a line: cell-killing effect of antagonist analogs – luminescence, set 2, cytotoxicity control for Gli-SUFU antagonist project, SAR follow-up (AID 651859).
In the case of `O=C(Nc1cc(N2CCCCC2)ncn1)c1ccco1`, the IC50 is > 11.7 µM (inactive).
`O=C(Nc1cc(N2CCCCC2)ncn1)c1cccs1`: the IC50 is > 11.7 µM (inactive).
As for `CCCCNc1cc(NC(=O)c2ccccc2)ncn1`, the IC50 was > 11.7 µM (inactive).
Take `O=C(Nc1cc(N2CCSCC2)ncn1)c1ccccc1`: the IC50 was > 11.7 µM (inactive).
The value for `COc1ccccc1C(=O)Nc1cc(N2CCCCC2)ncn1` was > 11.7 µM (inactive); that for `CCOc1ccc(-c2nc(CSCC(=O)NC3CC3)c(C)o2)cc1` was > 11.7 µM (inactive); that for `COc1cccc(C(=O)Nc2cc(N3CCCCC3)ncn2)c1` was > 11.7 µM (inactive).
As for `CC1CCN(c2cc(NC(=O)c3ccccc3)ncn2)CC1`, the IC50 is > 11.7 µM (inactive).
For the compound `O=C(Nc1cc(N2CCCCC2)ncn1)c1cc2ccccc2s1`, the IC50 is > 11.7 µM (inactive).
In the case of `CCCCN(C)c1cc(NC(=O)c2ccccc2)ncn1`, the IC50 was > 11.7 µM (inactive).
As for `O=C(Nc1cc(N2CCCCC2)ncn1)c1ccccc1Cl`, the IC50 is > 11.7 µM (inactive).
`CC(C)(C)OC(=O)N1CCN(c2cc(NC(=O)c3ccccc3)ncn2)CC1`: the IC50 was > 11.7 µM (inactive).
With `O=C(Nc1cc(NCC2CCCO2)ncn1)c1ccccc1` (stereo not drawn), the IC50 was > 11.7 µM (inactive).
Turning to `CCOc1ccc(S(=O)(=O)NCc2ccncc2)cc1NC(=O)c1ccccc1`, the IC50 is > 11.7 µM (inactive).
Take `O=C(Nc1cc(N2CCCCC2)ncn1)c1ccc(Cl)cc1`: the IC50 was > 11.7 µM (inactive).
Regarding `CC(C)Nc1cc(NC(=O)c2ccccc2)ncn1`, the IC50 is > 11.7 µM (inactive).
Regarding `CC1CCCCN1c1cc(NC(=O)c2ccccc2)ncn1` (stereo not drawn), the IC50 was > 11.7 µM (inactive).
On to `O=C(Nc1cc(N2CCCCC2)ncn1)c1ccc2ccccc2c1`, for which the IC50 is > 11.7 µM (inactive).
In the case of `O=C(Nc1cc(N2CCNCC2)ncn1)c1ccccc1` it was > 11.7 µM (inactive); in that of `O=C(Nc1cc(N2CCCCC2)ncn1)c1cccc2ccccc12`, > 11.7 µM (inactive).
The value for `N#Cc1cccc(C(=O)Nc2cc(N3CCCCC3)ncn2)c1` was > 11.7 µM (inactive).
As to `Cc1ccc(C(=O)Nc2cc(N3CCCCC3)ncn2)cc1`, the IC50 was > 11.7 µM (inactive).
Take `N#Cc1ccc(C(=O)Nc2cc(N3CCCCC3)ncn2)cc1`: the IC50 is > 11.7 µM (inactive).
For the compound `CC(C)(C)Nc1cc(NC(=O)c2ccccc2)ncn1`, the IC50 was > 11.7 µM (inactive).
`O=C(Nc1cc(N2CCCCC2)ncn1)c1ccsc1`: the IC50 is > 11.7 µM (inactive).
For the compound `O=C(Nc1cc(N2CCCCCC2)ncn1)c1ccccc1`, the IC50 was > 11.7 µM (inactive).
Take `O=C(Nc1cc(N2CCCCC2)ncn1)c1ccccc1C(F)(F)F`: the IC50 is > 11.7 µM (inactive).
With `O=C(Nc1cc(N2CCCCC2)ncn1)c1ccc(C(F)(F)F)cc1`, the IC50 was > 11.7 µM (inactive).
With `CC(C)CNc1cc(NC(=O)c2ccccc2)ncn1`, the IC50 was > 11.7 µM (inactive).
Turning to `CCC(C)Nc1cc(NC(=O)c2ccccc2)ncn1` (stereo not drawn), the IC50 was > 11.7 µM (inactive).
The value for `O=C(Nc1cc(N2CCOCC2)ncn1)c1ccccc1` was > 11.7 µM (inactive); that for `O=C(Nc1cc(N2CCCCC2)ncn1)c1ccccc1` was > 11.7 µM (inactive).
As to `CN1CCN(c2cc(NC(=O)c3ccccc3)ncn2)CC1`, the IC50 is > 11.7 µM (inactive).
